The values that follow come from PubChem BioAssay (NCI).

Molecules are shown by their SMILES. Several values for one entry are separate records, joined by “and”; a condition that tells them apart may be missing. Equal entries are not always repeated.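 Values below derive from 48-hour exposures of cells grown in 96-well plates, with endpoints linearly interpolated between the two concentrations bracketing the appropriate inhibition level. The concentration for 50% growth inhibition is given as GI50. The concentration for full growth arrest is given as TGI.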

Test systems include TK-10 renal; UO-31 renal; NCI-H460 lung; MDA-MB-435; BT-549 breast; OVCAR-4 ovarian; SN12C renal; COLO 205 colon.
Holding throughout (test): inhibition of tumour cell growth, NCI panel, 48 h

Regarding `COc1ccc2c(c1)c(-c1nc(-c3cn(C)c4ncccc34)cs1)cn2CCCCN1CCCCC1`, the GI50 was 1.53 µM with TK-10 renal; 1430 nM in the test on UO-31 renal; 1.68 µM with NCI-H460 lung; 1660 nM with MDA-MB-435; 1.64 µM in the test on BT-549 breast; 1.83 µM in the test with OVCAR-4 ovarian. The TGI in the test with TK-10 renal is 2.95 µM; in the test on UO-31 renal it was 2.77 µM; in the test with NCI-H460 lung, 3.2 µM; in the test on MDA-MB-435 it was 3.04 µM; with BT-549 breast it was 3.05 µM; with OVCAR-4 ovarian, 3.39 µM.
Regarding `Nc1c2ccccc2nc2ccccc12`, the GI50 was 2.07 µM and 4.61 µM with TK-10 renal; 1500 nM and 2610 nM in the test on SN12C renal; 1250 nM and 1600 nM in the test with UO-31 renal; 966 nM and 1830 nM with COLO 205 colon; 1.44 µM and 2.5 µM in the test on NCI-H460 lung; 2230 nM and 3460 nM in the test with MDA-MB-435. In addition, the GI50 in the test on BT-549 breast was 4.04 µM and 5.12 µM; with OVCAR-4 ovarian, 1.02 µM and 2.69 µM. Also, the TGI in the test with SN12C renal is 12.4 µM and 10.5 µM; in the test on UO-31 renal it was 2.75 µM and 7.34 µM; with COLO 205 colon it was 2.36 µM and 4.45 µM; with NCI-H460 lung, 5.17 µM and 6.88 µM; in the test with MDA-MB-435, 6.32 µM and 13.7 µM; in the test on BT-549 breast, 15.4 µM and 26.2 µM. Also, the TGI in the test with OVCAR-4 ovarian is 6.38 µM and 7.3 µM.
For `O=C(c1ccco1)c1c(C(F)(F)F)n([O-])c2cc(Cl)c(Cl)cc2[n+]1=O`, the GI50 with TK-10 renal was 0.943 µM; in the test with SN12C renal, 650 nM; in the test on UO-31 renal it was 46.5 nM; with COLO 205 colon it was 1820 nM; with NCI-H460 lung it was 0.121 µM; in the test with MDA-MB-435, 877 nM. Further, the GI50 in the test with OVCAR-4 ovarian was 4.17 µM. Moreover, the TGI in the test on TK-10 renal turned out to be 1.73 µM; in the test with SN12C renal it was 1.41 µM; in the test with UO-31 renal, 0.211 µM; in the test with COLO 205 colon it was 18.3 µM; in the test on NCI-H460 lung it was 0.361 µM; in the test with MDA-MB-435, 1.81 µM. The molecule further displayed a TGI in the test with OVCAR-4 ovarian of 12.7 µM.
Turning to `COc1cc2nc(NC3CCC3)nc(NC3CCN(C(C)C)CC3)c2cc1OC`, the GI50 in the test with SN12C renal was 3920 nM; with UO-31 renal it was 1430 nM; in the test on COLO 205 colon, 1880 nM; in the test on NCI-H460 lung it was 3.36 µM; in the test on MDA-MB-435, 1770 nM; in the test with BT-549 breast it was 1.71 µM. For the same molecule, the GI50 in the test with OVCAR-4 ovarian was 3.25 µM. The TGI came out at 16.1 µM with SN12C renal; 2.78 µM in the test with UO-31 renal; 3.81 µM with COLO 205 colon; 12.1 µM in the test on NCI-H460 lung; 3.33 µM in the test on MDA-MB-435; 3.7 µM in the test with BT-549 breast. Also, the TGI with OVCAR-4 ovarian amounted to 20.9 µM.
Turning to `CCOc1ccc(-c2nc3ccc(-c4nc5ccc(N6CCN(C)CC6)cc5[nH]4)cc3[nH]2)cc1OCC`, the GI50 with TK-10 renal is 6.22 µM; with SN12C renal it was 1940 nM; with UO-31 renal it was 12400 nM; with COLO 205 colon it was 322 nM; in the test on NCI-H460 lung, 3.14 µM; with MDA-MB-435 it was 1010 nM. The GI50 in the test on OVCAR-4 ovarian was 2.19 µM. The TGI with TK-10 renal worked out at 38.9 µM; in the test on SN12C renal, 10.9 µM; in the test with UO-31 renal, 35.9 µM; in the test with COLO 205 colon, 2 µM; in the test with NCI-H460 lung it was 10.4 µM; in the test on MDA-MB-435 it was 2.38 µM. This molecule showed a TGI in the test on OVCAR-4 ovarian of 6.79 µM.
On to `CC(C)CC(=O)O[C@H]1C(=O)O[C@@H]2C[C@H]3[C@H](C)C(=O)C(O[C@@H]4O[C@H](CO)[C@@H](O)[C@H](O)[C@H]4O)=C[C@]3(C)[C@H]3[C@@H](O)[C@H](O)[C@]4(C(=O)O)OC[C@]32[C@@H]14`, for which the TGI in the test with TK-10 renal, with SN12C renal, in the test with UO-31 renal, with COLO 205 colon, with NCI-H460 lung and with MDA-MB-435 was > 100 µM each time. In addition, in the test on BT-549 breast, the TGI was > 100 µM. Further, the results for the GI50 in the test with SN12C renal, with COLO 205 colon and with NCI-H460 lung were > 100000 nM, > 100000 nM and 27.5 µM, respectively.
As for `C=C(CN1CCc2ccccc2C1)c1ccc(C(=O)Nc2cccc(N)c2)cc1`, the GI50 with TK-10 renal was 27.3 µM; with SN12C renal, 18800 nM; in the test on UO-31 renal, 16000 nM; with COLO 205 colon it was 20700 nM; in the test on NCI-H460 lung, 19.9 µM; in the test with MDA-MB-435, 14000 nM. The GI50 in the test with BT-549 breast was 16.2 µM. For the same molecule, the TGI came to 92.5 µM with TK-10 renal; 36.5 µM with SN12C renal; 59.7 µM in the test on UO-31 renal; 45.5 µM with COLO 205 colon; 50 µM with NCI-H460 lung; 31.9 µM in the test on MDA-MB-435. Moreover, the TGI with BT-549 breast was 34.4 µM.
For `O=c1[nH]c(-c2ccncc2)nc2sc3c(c12)CCCCCC3`, the GI50 in the test with TK-10 renal was > 100 µM; in the test on SN12C renal it was > 100000 nM; with UO-31 renal, > 100000 nM; with COLO 205 colon, > 100000 nM; in the test with NCI-H460 lung, > 100 µM; in the test with MDA-MB-435, > 100000 nM. Further, in the test with BT-549 breast, the GI50 was > 100 µM. The TGI with TK-10 renal, in the test on SN12C renal, in the test on UO-31 renal, in the test with COLO 205 colon, with NCI-H460 lung and in the test with MDA-MB-435 was > 100 µM each time. Further, the TGI in the test on BT-549 breast was > 100 µM.
Consider `C/C(=N\NC(N)=O)C(CN1CCOCC1)C(c1ccccc1)c1c(O)c2ccccc2oc1=O` (stereo unspecified), for which the TGI with TK-10 renal, in the test on UO-31 renal, with COLO 205 colon, with MDA-MB-435, in the test on BT-549 breast and with OVCAR-4 ovarian was > 100 µM throughout.
Take `CCN(CC)c1ccc(C=C2C(=O)NC(=S)NC2=O)cc1`: the GI50 in the test on SN12C renal is 7240 nM; in the test with UO-31 renal it was 1620 nM; with COLO 205 colon it was 2490 nM; with NCI-H460 lung it was 3.99 µM; in the test on MDA-MB-435, 2310 nM; in the test with BT-549 breast it was 2.27 µM. For the same molecule, the GI50 in the test on OVCAR-4 ovarian was 7.58 µM. Also, the TGI in the test with SN12C renal came out at 23.1 µM; with UO-31 renal it was 3.61 µM; in the test with COLO 205 colon, 6.62 µM; in the test on NCI-H460 lung, 15.1 µM; in the test on MDA-MB-435, 7.1 µM; in the test on BT-549 breast it was 4.74 µM. The TGI in the test on OVCAR-4 ovarian was determined as 19.5 µM.
Regarding `CC[C@H]1CNC(=O)CC1CC(=O)OC` (stereo partly specified), the TGI in the test on TK-10 renal, in the test on SN12C renal, in the test on UO-31 renal, with NCI-H460 lung and in the test on OVCAR-4 ovarian was > 100 µM throughout.
`COc1cc(C(=O)N[C@@H]2CCCN(C)C2)ccc1Nc1ncc2c(n1)N(C1CCCC1)CC(C)(C)C(=O)N2C`: the GI50 was 4.3 µM in the test on TK-10 renal; 347 nM in the test on SN12C renal; 1960 nM in the test with UO-31 renal; 41.2 nM in the test on COLO 205 colon; 0.04 µM in the test with NCI-H460 lung; 0.73 µM with BT-549 breast. The GI50 in the test on OVCAR-4 ovarian was 10.8 µM. Further, the TGI in the test on TK-10 renal turned out to be 20.9 µM; with SN12C renal, 16.6 µM; in the test with UO-31 renal it was 16.1 µM; in the test on COLO 205 colon, 1.18 µM; in the test with NCI-H460 lung it was 14.8 µM; in the test with BT-549 breast, 18 µM. The molecule also had a TGI in the test with OVCAR-4 ovarian of 23.4 µM.
For the molecule `O=c1c2cc(F)ccc2sc2c(NCCCNCCO)nc3ccc(F)cc3c12`, the GI50 was 1.9 µM with TK-10 renal; 1580 nM in the test on SN12C renal; 1110 nM in the test on UO-31 renal; 1.63 µM in the test with NCI-H460 lung; 1710 nM in the test with MDA-MB-435; 11.1 µM with BT-549 breast. In addition, the GI50 in the test with OVCAR-4 ovarian was 2.03 µM. For the same molecule, the TGI with TK-10 renal amounted to 3.7 µM; in the test on SN12C renal, 3.05 µM; in the test on UO-31 renal, 2.37 µM; in the test on NCI-H460 lung it was 3.24 µM; with MDA-MB-435, 3.2 µM; in the test on BT-549 breast, 26.7 µM. The molecule further displayed a TGI with OVCAR-4 ovarian of 4.43 µM.
As for `C/C=C/C(C/C=C(\C)CO[Si](C)(C)C(C)(C)C)O[Si](C)(C)C(C)(C)C` (stereo unspecified), the TGI with TK-10 renal, in the test with SN12C renal, in the test on UO-31 renal, in the test on COLO 205 colon, with NCI-H460 lung and in the test on MDA-MB-435 was > 100 µM in each case. In the test with OVCAR-4 ovarian, the TGI is > 100 µM.
`COc1cc(-c2nn(-c3cccc(NC(=O)NCCNC(=O)c4ccccc4)c3)cc2-c2ccncc2)ccc1Cl`: the GI50 was 6.09 µM in the test with TK-10 renal; 556 nM in the test with SN12C renal; 2760 nM in the test on UO-31 renal; 3.56 µM in the test on NCI-H460 lung; 2410 nM with MDA-MB-435; 2.21 µM in the test with BT-549 breast. For the same molecule, the GI50 with OVCAR-4 ovarian is 3.03 µM. Besides, the TGI in the test on TK-10 renal is 63.7 µM; in the test on SN12C renal it was > 100 µM; in the test with UO-31 renal it was > 100 µM; with NCI-H460 lung, > 100 µM; in the test with MDA-MB-435 it was 9.29 µM; in the test on BT-549 breast, 8.05 µM. Moreover, in the test with OVCAR-4 ovarian, the TGI was > 100 µM.
As for `Cc1nn(-c2ccccc2)c2c1[C@@H](C)[C@H]1CC3(CC4(C)C[C@@H]3C1(C)c1c(C)nn(-c3ccccc3)c1N4C)N2C` (stereo partly specified), the GI50 was > 100 µM in the test with TK-10 renal, > 100000 nM with SN12C renal, > 100 µM with BT-549 breast and 8.66 µM in the test with OVCAR-4 ovarian. Also, the TGI in the test on TK-10 renal, in the test with SN12C renal, in the test with BT-549 breast and in the test with OVCAR-4 ovarian was > 100 µM each time.
For `O=C(/C=C/c1c[nH]c2ccccc12)c1ccccc1O`, the TGI in the test with TK-10 renal came to 32.8 µM; in the test on SN12C renal, 28.8 µM; in the test on UO-31 renal, 17.6 µM; in the test with NCI-H460 lung, 28.3 µM; with MDA-MB-435, 27.9 µM; in the test on BT-549 breast it was 28.3 µM. Besides, the TGI with OVCAR-4 ovarian worked out at 27 µM.
